Measurements reported in patent US11566007B2, “Ras inhibitors” (Revolution Medicines, Inc., priority 2019, dated 2023).
“And” between values parts separate entries of the source, which are not always exact repeats. Equal entries are not always repeated.

Assays:
[1] = test system: NCI-H358 cells (K-Ras G12C); assay: Potency assay: pERK in NCI-H358 cells; assay type: cell-based, human; settings: Homo sapiens, NCI-H358; H358 KRAS G12C; read-out: pERK EC50
In short: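 4 h cpd, 37 °C; 10-pt 3-fold series, 10 mM DMSO top stock, duplicates. Readout pERK: AlphaLISA SureFire Ultra or In-Cell Western (IR-800CW secondary, DRAQ5 DNA stain). IC50, 4-PL fit vs log conc.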

[2] = molecular target: K-Ras G12C (Homo sapiens (Human), UniProt P01116+P62937, G12C); assay: Ras-Raf (BRAF RBD) disruption / FRET / MOA assay, KRAS G12C; assay type: biochemical; settings: KRAS G12C; Ras-Raf disruption/FRET/MOA assay; read-out: IC50* KRAS G12C FRET data
Chain of K-Ras G12C (P01116-2 other isoform, or with tags, fused parts or gaps G12C): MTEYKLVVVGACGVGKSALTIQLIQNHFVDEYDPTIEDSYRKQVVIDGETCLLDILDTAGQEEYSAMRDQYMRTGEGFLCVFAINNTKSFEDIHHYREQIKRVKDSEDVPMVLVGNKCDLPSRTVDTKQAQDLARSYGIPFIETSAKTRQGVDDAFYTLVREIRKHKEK
Chain of K-Ras G12C (P62937 whole entry): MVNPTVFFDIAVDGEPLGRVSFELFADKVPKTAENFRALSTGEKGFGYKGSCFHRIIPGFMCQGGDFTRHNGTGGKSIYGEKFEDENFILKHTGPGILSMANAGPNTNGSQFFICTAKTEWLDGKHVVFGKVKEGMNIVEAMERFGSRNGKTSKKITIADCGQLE
In short: (§1)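 Ternary complex formation (Ras–compound–cyclophilin A) displacing BRAF RBD, monitored by TR-FRET. Three hours at 25° C with compound (top 30 μM final), then 1.5 h with the labelled antibodies. Lower ratio than DMSO indicates disruption; IC50 reported.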

[3] = molecular target: K-Ras G13C (Homo sapiens (Human), UniProt P01116+P62937, G13C); assay: Ras-Raf (BRAF RBD) disruption / FRET / MOA assay, KRAS G13C; assay type: biochemical; settings: KRAS G13C; Ras-Raf disruption/FRET/MOA assay; read-out: IC50* KRAS G13C FRET data
Chain of K-Ras G13C (P01116-2 other isoform, or with tags, fused parts or gaps G13C): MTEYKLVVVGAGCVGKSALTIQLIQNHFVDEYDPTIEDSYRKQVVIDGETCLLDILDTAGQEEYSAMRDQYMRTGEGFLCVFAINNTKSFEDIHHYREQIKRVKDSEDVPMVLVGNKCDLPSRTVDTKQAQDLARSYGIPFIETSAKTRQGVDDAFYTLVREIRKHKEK
Chain of K-Ras G13C (P62937 whole entry): as the sequence (P62937 whole entry) above
In short: as §1

[4] = molecular target: KRAS G12D (Homo sapiens (Human), UniProt P01116+P62937, G12D); assay: Ras-Raf (BRAF RBD) disruption / FRET / MOA assay, KRAS G12D; assay type: biochemical; settings: Ras-Raf disruption/FRET/MOA assay; class symbols; read-out: KRAS G12D FRET data IC50
Chain of KRAS G12D (P01116-2 other isoform, or with tags, fused parts or gaps G12D): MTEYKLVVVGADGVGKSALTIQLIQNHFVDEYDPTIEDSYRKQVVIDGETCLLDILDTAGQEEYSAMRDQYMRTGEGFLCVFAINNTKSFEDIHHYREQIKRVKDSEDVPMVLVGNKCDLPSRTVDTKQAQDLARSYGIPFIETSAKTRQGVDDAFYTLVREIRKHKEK
Chain of KRAS G12D (P62937 whole entry): as the sequence (P62937 whole entry) above
In short: as §1

[5] = molecular target: KRAS G12V (Homo sapiens (Human), UniProt P01116+P62937, G12V); assay: Ras-Raf (BRAF RBD) disruption / FRET / MOA assay, KRAS G12V; assay type: biochemical; settings: read-out: IC50* KRAS G12V FRET data
Chain of KRAS G12V (P01116-2 other isoform, or with tags, fused parts or gaps G12V): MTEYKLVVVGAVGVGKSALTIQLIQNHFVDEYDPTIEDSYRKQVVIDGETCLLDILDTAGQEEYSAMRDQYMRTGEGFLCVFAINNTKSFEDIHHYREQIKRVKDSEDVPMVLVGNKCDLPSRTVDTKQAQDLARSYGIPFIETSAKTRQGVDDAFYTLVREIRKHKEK
Chain of KRAS G12V (P62937 whole entry): as the sequence (P62937 whole entry) above
In short: as §1

[6] = molecular target: KRAS G13D (Homo sapiens (Human), UniProt P01116+P62937, G13D); assay: Ras-Raf (BRAF RBD) disruption / FRET / MOA assay, KRAS G13D; assay type: biochemical; settings: read-out: IC50* KRAS G13D FRET data
Chain of KRAS G13D (P01116-2 other isoform, or with tags, fused parts or gaps G13D): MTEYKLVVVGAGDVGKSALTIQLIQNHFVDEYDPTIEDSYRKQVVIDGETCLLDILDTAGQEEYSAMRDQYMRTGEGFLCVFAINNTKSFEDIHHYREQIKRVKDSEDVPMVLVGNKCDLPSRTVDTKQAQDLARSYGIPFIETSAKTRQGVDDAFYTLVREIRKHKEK
Chain of KRAS G13D (P62937 whole entry): as the sequence (P62937 whole entry) above
In short: as §1

[7] = molecular target: NRAS Q61R (Homo sapiens (Human), UniProt P01111+P62937, Q61R); assay: Ras-Raf (BRAF RBD) disruption / FRET / MOA assay, NRAS Q61R; assay type: biochemical; settings: NRAS Q61R; Ras-Raf disruption/FRET/MOA assay; read-out: IC50* NRAS Q61R FRET data
Chain of NRAS Q61R (P01111 whole entry Q61R): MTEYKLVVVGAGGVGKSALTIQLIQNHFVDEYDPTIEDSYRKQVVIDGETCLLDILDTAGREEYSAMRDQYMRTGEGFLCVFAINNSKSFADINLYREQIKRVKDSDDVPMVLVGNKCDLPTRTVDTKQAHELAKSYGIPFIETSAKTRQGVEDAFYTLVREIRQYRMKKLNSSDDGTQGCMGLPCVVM
Chain of NRAS Q61R (P62937 whole entry): as the sequence (P62937 whole entry) above
In short: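 Compounds were tested as a 10-point 3-fold dilution series from 30 μM final for their ability to drive ternary complex formation between nucleotide-loaded Ras and cyclophilin A, displacing the BRAF RBD. After 3 h at 25° C., anti-His Eu-W1024 (10 nM) and anti-GST allophycocyanin (50 nM) were added for 1.5 h. A TR-FRET ratio decrease versus DMSO gave IC50.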

Row | Compound | EC50 [1] [nM] | IC50 [2] | IC50 [3] | IC50 [4] | IC50 [5] | IC50 [6] | IC50 [7] [nM]
1 | C=CC(=O)N1CC[C@H](C(=O)N(C)[C@H](C(=O)N[C@H]2Cc3cc(O)cc(c3)-c3ccc4c(c3)c(c(-c3cc(C)ccc3[C@H](C)OC)n4CC)CC(C)(C)COC(=O)[C@@H]3CCCN(N3)C2=O)C(C)C)C1 (atropisomer, axis not shown) [Example A167] | < 5000 | 100 to 1000 nM and < 10 nM | 10 to 100 nM and 1000 to 10000 nM | > 10000 nM and 100 to 1000 nM | 1000 to 10000 nM and 10 to 100 nM | 100 to 1000 nM and > 10000 nM | 100 to 1000
2 | CC#CC(=O)N1CCC(C(=O)N(C)[C@H](C(=O)N[C@H]2Cc3nc(cs3)-c3ccc4c(c3)c(c(-c3cccnc3[C@H](C)OC)n4CC)CC(C)(C)COC(=O)[C@@H]3CCCN(N3)C2=O)C(C)C)C1 (atropisomer, axis not shown) [Example A168] | < 5000 | 100 to 1000 nM | 1000 to 10000 nM | > 10000 nM | 1000 to 10000 nM | > 10000 nM | 1000 to 10000
3 | C=CC(=O)N1CC[C@H](C(=O)N(C)[C@H](C(=O)N[C@H]2Cc3cccc(c3)-c3ccc4c(c3)c(c(-c3cccnc3[C@H](C)OC)n4CC(F)F)CC(C)(C)COC(=O)[C@@H]3CCCN(N3)C2=O)C(C)C)C1 (atropisomer, axis not shown) [Example A335] | < 5000 | 100 to 1000 nM | 1000 to 10000 nM | > 10000 nM | 1000 to 10000 nM | 1000 to 10000 nM | 1000 to 10000
4 | C=CC(=O)N1CC[C@H](C(=O)N(C)[C@H](C(=O)N[C@H]2Cc3cc(cc(C(F)F)c3)-c3ccc4c(c3)c(c(-c3cccnc3[C@H](C)OC)n4CC)CC(C)(C)COC(=O)[C@@H]3CCCN(N3)C2=O)C(C)C)C1 (atropisomer, axis not shown) [Example A341, (3S)-1-acryloyl-N-((2S)-1-(((6^3S,4S)-2^5-(difluoromethyl)-1^1-ethyl-1^2-(2-((S)-1-methoxyethyl)pyridin-3-yl)-10,10-dimethyl-5,7-dioxo-6^1,6^2,6^3,6^4,6^5,6^6-hexahydro-1^1H-8-oxa-1(5,3)-indola-6(1,3)-pyridazina-2(1,3)-benzenacycloundecaphane-4-yl)amino)-3-methyl-1-oxobutan-2-yl)-N-methylpyrrolidine-3-carboxamide] | < 5000 | 100 to 1000 nM | 100 to 1000 nM | 1000 to 10000 nM | 1000 to 10000 nM | 1000 to 10000 nM | 1000 to 10000
5 | C=CC(=O)N1CC(OC[C@H](C(=O)N[C@H]2Cc3cccc(c3)-c3ccc4c(c3)c(c(-c3cccnc3[C@H](C)OC)n4CC(F)(F)F)CC(C)(C)COC(=O)[C@@H]3CCCN(N3)C2=O)C(C)C)C1 (atropisomer, axis not shown) [Example A344] | < 5000 | 10 to 100 nM | 100 to 1000 nM | > 10000 nM | 1000 to 10000 nM | 1000 to 10000 nM | 1000 to 10000
6 | C=CC(=O)N1CC(OC[C@H](C(=O)N[C@H]2Cc3cc(cc(C(F)F)c3)-c3ccc4c(c3)c(c(-c3cccnc3[C@H](C)OC)n4CC)CC(C)(C)COC(=O)[C@@H]3CCCN(N3)C2=O)C(C)C)C1 (atropisomer, axis not shown) [Example A345] | < 5000 | 1000 to 10000 nM | 1000 to 10000 nM | > 10000 nM | > 10000 nM | > 10000 nM | > 10000
7 | C=CC(=O)N1CC2(COCCN2C(=O)N(C)[C@H](C(=O)N[C@H]2Cc3nc(cs3)-c3ccc4c(c3)c(c(-c3cccnc3[C@H](C)OC)n4CC)CC(C)(C)COC(=O)[C@@H]3CCCN(N3)C2=O)C(C)C)C1 (atropisomer, axis not shown) [Example A352] | < 5000 | 10 to 100 nM | > 10000 nM | > 10000 nM | > 10000 nM | > 10000 nM | 1000 to 10000
8 | C=CC(=O)N1CC[C@@]2(C1)CN(C(=O)N(C)[C@H](C(=O)N[C@H]1Cc3nc(cs3)-c3ccc4c(c3)c(c(-c3cccnc3[C@H](C)OC)n4CC)CC(C)(C)COC(=O)[C@@H]3CCCN(N3)C1=O)C(C)C)CCO2 (atropisomer, axis not shown) [Example A353] | < 5000 | 10 to 100 nM | 100 to 1000 nM | 100 to 1000 nM | 100 to 1000 nM | 100 to 1000 nM | 100 to 1000
9 | C=CC(=O)NC[C@H]1CCN1C(=O)N(C)[C@H](C(=O)N[C@H]1Cc2nc(cs2)-c2ccc3c(c2)c(c(-c2cccnc2[C@H](C)OC)n3CC)CC(C)(C)COC(=O)[C@@H]2CCCN(N2)C1=O)C(C)C (atropisomer, axis not shown) [Example A356] | < 5000 | 100 to 1000 nM | 100 to 1000 nM | 1000 to 10000 nM | 1000 to 10000 nM | 1000 to 10000 nM | 100 to 1000
10 | C=C(C)C(=O)N1CC(N(C)C(=O)N(C)[C@H](C(=O)N[C@H]2Cc3nc(cs3)-c3ccc4c(c3)c(c(-c3cccnc3[C@H](C)OC)n4CC)CC(C)(C)COC(=O)[C@@H]3CCCN(N3)C2=O)C(C)C)C1 (atropisomer, axis not shown) [Example A360] | < 5000 | 100 to 1000 nM | 100 to 1000 nM | 1000 to 10000 nM | 100 to 1000 nM | 1000 to 10000 nM | 100 to 1000
11 | CCn1c(-c2cccnc2[C@H](C)OC)c2c3cc(ccc31)-c1csc(n1)C[C@H](NC(=O)[C@H](C(C)C)N(C)C(=O)N(C)C1CN(C(=O)/C=C/CN(C)C)C1)C(=O)N1CCC[C@H](N1)C(=O)OCC(C)(C)C2 (atropisomer, axis not shown) [Example A361] | < 5000 | 10 to 100 nM | 100 to 1000 nM | 1000 to 10000 nM | 100 to 1000 nM | 100 to 1000 nM | 100 to 1000
12 | CCn1c(-c2cccnc2[C@H](C)OC)c2c3cc(ccc31)-c1csc(n1)C[C@H](NC(=O)CN1CC[C@@]3(CCN(C(=O)C#CC(C)(C)N4CCC4)C3)C1)C(=O)N1CCC[C@H](N1)C(=O)OCC(C)(C)C2 (atropisomer, axis not shown) [Example A364] | < 5000 | 100 to 1000 nM | 1000 to 10000 nM | > 10000 nM | 1000 to 10000 nM | 1000 to 10000 nM | 1000 to 10000
13 | CCn1c(-c2cccnc2[C@H](C)OC)c2c3cc(ccc31)-c1csc(n1)C[C@H](NC(=O)CCO[C@@H]1CCN(C(=O)C#CC(C)(C)N3CCC3)C1)C(=O)N1CCC[C@H](N1)C(=O)OCC(C)(C)C2 (atropisomer, axis not shown) [Example A366] | < 5000 | 10 to 100 nM | 100 to 1000 nM | 1000 to 10000 nM | 100 to 1000 nM | 1000 to 10000 nM | 1000 to 10000
14 | C=CC(=O)N1CC[C@H](C(=O)N(C)[C@H](C(=O)N[C@H]2Cc3cc(cc(C(F)F)c3)-c3ccc4c(c3)c(c(-c3cccnc3[C@H](C)OC)n4CC(F)(F)F)CC(C)(C)COC(=O)[C@@H]3CCCN(N3)C2=O)C(C)C)C1 (atropisomer, axis not shown) [Example A372] | < 5000 | 100 to 1000 nM | 100 to 1000 nM | > 10000 nM | 1000 to 10000 nM | 1000 to 10000 nM | 1000 to 10000
15 | CCn1c(-c2cccnc2[C@H](C)OC)c2c3cc(ccc31)N1CCO[C@@H](C[C@H](NC(=O)[C@@H](COC3CN(C(=O)C#CC(C)(C)N(C)C)C3)C(C)C)C(=O)N3CCC[C@H](N3)C(=O)OCC(C)(C)C2)C1 (atropisomer, axis not shown) [Example A377, (2R)-2-(((1-(4-(dimethylamino)-4-methylpent-2-ynoyl)azetidin-3-yl)oxy)methyl)-N-((2^2S,6^3S,4S)-1^1-ethyl-1^2-(2-((S)-1-methoxyethyl)pyridin-3-yl)-10,10-dimethyl-5,7-dioxo-6^1,6^2,6^3,6^4,6^5,6^6-hexahydro-1^1H-8-oxa-2(4,2)-morpholina-1(5,3)-indola-6(1,3)-pyridazinacycloundecaphane-4-yl)-3-methylbutanamide] | < 5000 | < 10 nM | 1000 to 10000 nM | > 10000 nM | > 10000 nM | > 10000 nM | > 10000
16 | CO[C@@H](C)c1ncccc1-c1c2c3cc(ccc3n1CC(F)(F)F)-c1csc(n1)C[C@H](NC(=O)CCOC1CN(C(=O)C#CC(C)(C)N(C)C)C1)C(=O)N1CCC[C@H](N1)C(=O)OCC(C)(C)C2 (atropisomer, axis not shown) [Example A380] | < 5000 | < 10 nM | 100 to 1000 nM | 1000 to 10000 nM | 100 to 1000 nM | 1000 to 10000 nM | 1000 to 10000
